# From BindingDB's records for doi:10.1002/cmdc.200500008 (Philipps-Universität Marburg, 2006)
# Key:
# [1] = molecular target: Cathepsin D (Homo sapiens, UniProt P07339); assay: Enzymatic Assay; details: pH 5.5
# [2] = molecular target: Gag-Pol polyprotein (Human immunodeficiency virus type 1 group M subtype B (isolate BRU/LAI), UniProt P03367); assay: Enzymatic Assay; details: pH 5.5
# Method: Binding constants for inhibition of HIV protease were determined as previously described.
# Chain of Cathepsin D (P07339 65-162 limits assumed): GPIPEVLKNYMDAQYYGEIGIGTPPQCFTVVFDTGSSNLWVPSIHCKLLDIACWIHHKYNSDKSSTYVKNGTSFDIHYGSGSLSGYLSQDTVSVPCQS
# Chain of Cathepsin D (P07339 169-412 limits assumed): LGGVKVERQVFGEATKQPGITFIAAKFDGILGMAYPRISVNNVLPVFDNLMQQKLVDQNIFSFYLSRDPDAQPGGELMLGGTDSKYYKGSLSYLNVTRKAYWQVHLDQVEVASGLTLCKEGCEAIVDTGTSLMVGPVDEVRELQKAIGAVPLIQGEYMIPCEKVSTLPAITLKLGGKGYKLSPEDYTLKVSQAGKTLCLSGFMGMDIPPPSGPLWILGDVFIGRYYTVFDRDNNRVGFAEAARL
smiles,measurement,setting,value
"COc1cc(Br)c(OC(=O)N(Cc2ccccc2)CC2CNC[C@H]2CN(CCc2ccc(Cl)cc2Cl)C(=O)CCCc2ccccc2)cc1OC (stereo not given in full) [Aspartyl protease inhibitor, 16]",IC50,[1],1.05 µM
same,IC50,[2],19.8 µM
"Cc1cccc(C)c1OCC(=O)N(Cc1ccccc1)CC1CNC[C@H]1CN(CC(C)C)S(=O)(=O)c1ccccc1 (stereo not given in full) [Aspartyl protease inhibitor, 13]",IC50,[1],> 40 µM
same,IC50,[2],2.2 µM
"COc1cc(Br)c(OC(=O)N(Cc2ccccc2)CC2CNC[C@H]2CN(CCc2ccc(Cl)cc2Cl)C(=O)CCN2C(=O)c3ccccc3C2=O)cc1OC (stereo not given in full) [Aspartyl protease inhibitor, 17]",IC50,[1],0.57 µM
same,IC50,[2],22.1 µM
"Cc1cccc(C)c1OCC(=O)N(Cc1ccccc1)CC1CNC[C@H]1CN(CC(C)C)S(=O)(=O)c1ccc(N)cc1 (stereo not given in full) [Aspartyl protease inhibitor, 14]",IC50,[1],> 40 µM
same,IC50,[2],3.3 µM
"Cc1ccc(S(=O)(=O)N(CC(C)C)C[C@@H]2CNCC2CN(Cc2ccccc2)C(=O)COc2c(C)cccc2C)cc1 (stereo not given in full) [Aspartyl protease inhibitor, 15]",IC50,[1],> 40 µM
same,IC50,[2],12.1 µM
